From PubChem BioAssay AID504759 (National Center for Advancing Translational Sciences (NCATS), 2011) come the findings set out here.

For this data set, the system named is Caco-2 monolayer bidirectional permeability, LC-MS/MS. Nature of the data set: Inhibitors of Cruzain: Efflux Ratio Profiling. Particulars: hits give low values. An excerpt:
Chagas Disease is a neglected tropical disease that affects over 16 million people in Latin America. The cysteine protease cruzain is essential for the survival Trypanosoma cruzi, the parasitic agent responsible for Chagas disease. Potential intervention for T. cruzi includes the inhibition of cruzain. This bioassay will summarize the ongoing development of small molecule cruzain inhbitiors. Currently, a screen of ~200k compounds and through extensive follow-up work a probe was identified. To further characterize the probe, it was tested in in vitro ADME assays. This bioassays provides profiling data on Caco-2 cell permeability of leads compounds developed for the HPGD project. This in vitro model is often predictive of in vivo efflux of the compound by measuring the ratio of transport in and out the plasma membrane of the Caco2-cell line. NIH Chemical Genomics Center [NCGC] NIH Molecular Libraries Probe Production Centers Network [MLPCN] MLSCN Grant: DA024891-01 PI Name: Dr. Brian Shoichet; University of California, San Francisco
1. Buffer Preparation: Prepare 1M HEPES: add 23.83g HEPES to 100ml of 0.85% NaCl Prepare HBSS+ buffer: add 12.8ml of 1M HEPES in 0.85% NaCl to 500ml HBSS buffer. 2. […] The T0, LY and T90, LY plates are read by FlexStation 3 at excitation of 485 nm and emission of 535 nm to determine LY permeability. […]

Broadly, the efflux ratio is the permeability from basolateral to apical divided by that in the opposite direction, in the common usage. On to `Cc1ccc(OCCn2c(CCNC(=O)C3CCCCC3)nc3ccccc32)cc1`, for which the efflux ratio is 1.1.
